Our source for the IC90 values is patent US10941157B2, “Pesticidal compositions and uses thereof” (Gilead Apollo, LLC, priority 2015, dated 2021).

What all share (type): cell-based
In one assay the test system is Septoria tritici (St). Nature of the assay: In vitro pathogen growth inhibition assay, St. As to conditions: Zymoseptoria tritici, 48 h. In outline:
(§1)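 Value reported is the compound concentration reaching ≥90% growth inhibition, from OD readings at 24 and 48 h after blank subtraction, confirmed visually. Inoculum was spores diluted in 17% V8 medium, except Rs, using 1.5 mm mycelial plugs in ¼ PDB; actual compound concentration corrected via OD600.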

Assay [1] relates to Fusarium moniliforme (Fm). Nature of the assay: In vitro pathogen growth inhibition assay, Fm. As to conditions: Fusarium verticillioides. In outline:
as §1

The test system of assay [2] is Fusarium virguliforme (Fv). Nature of the assay: In vitro pathogen growth inhibition assay, Fv. In outline:
(§2)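 Spores in 17% V8 liquid medium, or 1.5 mm Rs mycelial plugs in ¼ PDB, incubated with compound; final concentration checked by OD600 for precipitation. OD readings at 24 and 48 h, blank-subtracted, plus visual ratings; value is concentration giving ≥90% growth inhibition.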

Assay [3] concerns Phytophthora capsici (Pc). In words: In vitro pathogen growth inhibition assay, Pc. As to conditions: 48 h. In outline: as §2
The next assay deals with Diplodia maydis (Dm). In words: In vitro pathogen growth inhibition assay, Dm. As to conditions: Stenocarpella maydis, 48 h. The method, boiled down:
as §2

For the next assay, the system named is Botrtyis cinerea (Bc). In words: In vitro pathogen growth inhibition assay, Bc. As to conditions: 48 h. In outline:
as §1

Another assay concerns Rhizoctonia solani (Rs). In words: In vitro pathogen growth inhibition assay, Rs (mycelial plugs). As to conditions: Rhizoctonia solani, 48 h. The method, boiled down: as §2
The test system of assay [4] is Collectotrichum graminicola (Cg). In words: In vitro pathogen growth inhibition assay, Cg. As to conditions: 48 h. The method, boiled down: as §1
The mark [5] stands for this setting: concentration sufficient to ≥90% inhibition of growth, 48 hours vs 2% DMSO control, read-out: Compound Concentration (ppm) for ≥90% inhibition, St.
Setting [6] is: concentration sufficient to ≥90% inhibition of growth, 48 hours vs 2% DMSO control, read-out: Compound Concentration (ppm) for ≥90% inhibition, Fm.
Setting [7] is: concentration sufficient to ≥90% inhibition of growth, 48 hours vs 2% DMSO control, read-out: Compound Concentration (ppm) for ≥90% inhibition, Fv.
Where [8] appears, read: concentration sufficient to ≥90% inhibition of growth, 48 hours vs 2% DMSO control, read-out: Compound Concentration (ppm) for ≥90% inhibition, Pc.
Where [9] appears, read: concentration sufficient to ≥90% inhibition of growth, 48 hours vs 2% DMSO control, read-out: Compound Concentration (ppm) for ≥90% inhibition, Dm.
The mark [10] stands for this setting: concentration sufficient to ≥90% inhibition of growth, 48 hours vs 2% DMSO control, read-out: Compound Concentration (ppm) for ≥90% inhibition, Bc.
Setting [11] is: concentration sufficient to ≥90% inhibition of growth, 48 hours vs 2% DMSO control, read-out: Compound Concentration (ppm) for ≥90% inhibition, Rs.
The mark [12] stands for this setting: concentration sufficient to ≥90% inhibition of growth, 48 hours vs 2% DMSO control, read-out: Compound Concentration (ppm) for ≥90% inhibition, Cg.
The mark [13] stands for this setting: ≥90% growth inhibition, 48 hours, vs 2% DMSO control, read-out: Compound Concentration (ppm) sufficient for ≥90% inhibition of St.
The mark [14] stands for this setting: ≥90% growth inhibition, 48 hours, vs 2% DMSO control, read-out: Compound Concentration (ppm) sufficient for ≥90% inhibition of Fm.
Where [15] appears, read: ≥90% growth inhibition, 48 hours, vs 2% DMSO control, read-out: Compound Concentration (ppm) sufficient for ≥90% inhibition of Fv.
Where [16] appears, read: ≥90% growth inhibition, 48 hours, vs 2% DMSO control, read-out: Compound Concentration (ppm) sufficient for ≥90% inhibition of Pc.
Where [17] appears, read: ≥90% growth inhibition, 48 hours, vs 2% DMSO control, read-out: Compound Concentration (ppm) sufficient for ≥90% inhibition of Dm.
Where [18] appears, read: ≥90% growth inhibition, 48 hours, vs 2% DMSO control, read-out: Compound Concentration (ppm) sufficient for ≥90% inhibition of Bc.
Where [19] appears, read: ≥90% growth inhibition, mycelial plugs, 48 hours, vs 2% DMSO control, read-out: Compound Concentration (ppm) sufficient for ≥90% inhibition of Rs.
Setting [20] is: ≥90% growth inhibition, 48 hours, vs 2% DMSO control, read-out: Compound Concentration (ppm) sufficient for ≥90% inhibition of Cg.

Values after ≈ are worked out from the molar mass of the structure shown. Where two headings read alike, the source gives them in different places.

For `CCNC(=O)[C@H](C)n1c(=O)c2c(C)c(-n3cccn3)sc2n(C[C@H](OCCC#N)c2cc(F)ccc2OC)c1=O` [Compound I-306], the IC90 in the assay on Septoria tritici (St) (setting [5]) is over 50 µg/mL; in assay [1] (setting [6]), 10 µg/mL (≈ 17.6 µM); in assay [2] (setting [7]), over 50 µg/mL; in assay [3] (setting [8]) it was over 50 µg/mL; in the assay with Diplodia maydis (Dm) (setting [9]), over 50 µg/mL; in the assay with Botrtyis cinerea (Bc) (setting [10]), 50 µg/mL (≈ 87.9 µM). The IC90 (in the assay on Rhizoctonia solani (Rs) (setting [11]); in assay [4] (setting [12])) was over 50 µg/mL in each case.
As to `COc1ccc(F)cc1[C@H](Cn1c(=O)n(C(C)(C)C(=O)NC(C)C)c(=O)c2c(C)c(-n3nccn3)sc21)OC(=O)CO` [Compound I-309], the IC90 with Septoria tritici (St) (setting [5]) is over 50 µg/mL; in assay [1] (setting [6]) it was 10 µg/mL (≈ 16.6 µM); in assay [2] (setting [7]), 10 µg/mL (≈ 16.6 µM); in assay [3] (setting [8]) it was over 50 µg/mL; in the assay with Diplodia maydis (Dm) (setting [9]), over 50 µg/mL; in the assay with Botrtyis cinerea (Bc) (setting [10]), 50 µg/mL (≈ 83 µM). For the same compound, the IC90 (in the assay on Rhizoctonia solani (Rs) (setting [11]); in assay [4] (setting [12])) was over 50 µg/mL throughout.
As to `COCCO[C@@H](Cn1c(=O)n([C@@H](C)C(=O)NC(C)C)c(=O)c2c(C)c(-n3cccn3)sc21)c1cc(F)ccc1OC` [Compound I-311], the IC90 was over 50 µg/mL with Septoria tritici (St) (setting [5]); 50 µg/mL (≈ 85.1 µM) in assay [1] (setting [6]); over 50 µg/mL in assay [2] (setting [7]); over 50 µg/mL in assay [3] (setting [8]); over 50 µg/mL in the assay with Diplodia maydis (Dm) (setting [9]); 50 µg/mL (≈ 85.1 µM) in the assay with Botrtyis cinerea (Bc) (setting [10]). Besides, the IC90 (in the assay with Rhizoctonia solani (Rs) (setting [11]); in assay [4] (setting [12])) was over 50 µg/mL in each case.
`COc1ccc(F)cc1[C@H](Cn1c(=O)n([C@@H](C)C(=O)NC2CCC2)c(=O)c2c(C)c(-n3cccn3)sc21)OCCC#N` [Compound I-312]: the IC90 in the assay on Septoria tritici (St) (setting [5]) is over 50 µg/mL; in assay [1] (setting [6]), 10 µg/mL (≈ 16.8 µM); in assay [2] (setting [7]) it was over 50 µg/mL; in assay [3] (setting [8]), over 50 µg/mL; with Diplodia maydis (Dm) (setting [9]), over 50 µg/mL; with Botrtyis cinerea (Bc) (setting [10]), over 50 µg/mL. For the same compound, the figures for the IC90 (in the assay with Rhizoctonia solani (Rs) (setting [11]); in assay [4] (setting [12])) were 2 µg/mL (≈ 3.36 µM) and over 50 µg/mL, respectively.
On to `COc1ccc(F)cc1[C@H](Cn1c(=O)n([C@@H](C)C(=O)N2CCCC2)c(=O)c2c(C)c(-n3cccn3)sc21)OCCC#N` [Compound I-313], for which the IC90 in the assay with Septoria tritici (St) (setting [13]) is over 50 µg/mL; in assay [1] (setting [14]) it was 2 µg/mL (≈ 3.36 µM); in assay [2] (setting [15]), 50 µg/mL (≈ 84.1 µM); in assay [3] (setting [16]), over 50 µg/mL; in the assay with Diplodia maydis (Dm) (setting [17]) it was over 50 µg/mL; in the assay on Botrtyis cinerea (Bc) (setting [18]), over 50 µg/mL. Moreover, the IC90 (with Rhizoctonia solani (Rs) (setting [19]); in assay [4] (setting [20])) was 50 µg/mL (≈ 84.1 µM) throughout.
Regarding `COc1ccc(F)cc1[C@H](Cn1c(=O)n([C@H](C)C(=O)N2CCCC2)c(=O)c2c(C)c(-n3cccn3)sc21)OCCC#N` [Compound I-314], the IC90 in the assay with Septoria tritici (St) (setting [13]) was over 50 µg/mL; in assay [1] (setting [14]), 2 µg/mL (≈ 3.36 µM); in assay [2] (setting [15]), 10 µg/mL (≈ 16.8 µM); in assay [3] (setting [16]), over 50 µg/mL; in the assay with Diplodia maydis (Dm) (setting [17]) it was over 50 µg/mL; with Botrtyis cinerea (Bc) (setting [18]), over 50 µg/mL. For the same compound, the IC90 in the assay with Rhizoctonia solani (Rs) (setting [19]) was over 50 µg/mL; in assay [4] (setting [20]), 50 µg/mL (≈ 84.1 µM).
With `COc1ccc(F)cc1[C@@](O)(CO)Cn1c(=O)n(C(C)(C)C(=O)NC(C)C)c(=O)c2c(C)c(-n3nccn3)sc21` [Compound I-315], the IC90 in the assay on Septoria tritici (St) (setting [13]) was over 50 µg/mL; in assay [1] (setting [14]), 0.08 µg/mL (≈ 0.139 µM); in assay [2] (setting [15]) it was 0.4 µg/mL (≈ 0.696 µM); in assay [3] (setting [16]) it was 2 µg/mL (≈ 3.48 µM); in the assay with Diplodia maydis (Dm) (setting [17]), 0.4 µg/mL (≈ 0.696 µM); in the assay with Botrtyis cinerea (Bc) (setting [18]), 0.4 µg/mL (≈ 0.696 µM). Moreover, the IC90 (in the assay with Rhizoctonia solani (Rs) (setting [19]); in assay [4] (setting [20])) was 0.08 µg/mL (≈ 0.139 µM) in each case.
Consider `COc1ccc(F)cc1[C@H](Cn1c(=O)n(C(C)(C)C(=O)NC(C)C)c(=O)c2c(C)c(-n3cncn3)sc21)OCCC#N` [Compound I-317], for which the IC90 in the assay with Septoria tritici (St) (setting [5]) is over 50 µg/mL; in assay [1] (setting [6]) it was 10 µg/mL (≈ 16.7 µM); in assay [2] (setting [7]) it was at least 10 µg/mL; in assay [3] (setting [8]), over 50 µg/mL; in the assay with Diplodia maydis (Dm) (setting [9]), over 50 µg/mL; in the assay with Botrtyis cinerea (Bc) (setting [10]) it was 50 µg/mL (≈ 83.7 µM). For the same compound, the IC90 in the assay with Rhizoctonia solani (Rs) (setting [11]) is over 50 µg/mL; in assay [4] (setting [12]), 50 µg/mL (≈ 83.7 µM).
